# In ChEMBL document CHEMBL6153096, “Development of Potent and Selective CK1α Molecular Glue Degraders” (J Med Chem, 2025):
# Activity calls are given as the source filed them. The calls are words filed in the database; no cut-off is given here.
# Key:
# [1] = target: T1, Cereblon/Casein kinase I alpha (Homo sapiens, UniProt P48729+Q96SW2); experiment: Molecular glue activity at CRBN/HiBiT-tagged CK1-alpha in human Jurkat cells assessed as induction of CK1-alpha degradation incubated for 5 hrs by Nano-Glo HiBiT assay; assay type: cell-based
# MOLM-13 = experiment: Antiproliferative activity against human MOLM-13 cells incubated for 72 hrs by CellTiter-Glo Luminescent Cell Viability Assay; assay type: functional, cell-based; conditions: MOLM-13, 72 h
# MOLM-14 [2] = experiment: Antiproliferative activity against human MOLM-14 cells incubated for 72 hrs by CellTiter-Glo Luminescent Cell Viability Assay; assay type: functional, cell-based
# MOLM-14 [3] = experiment: Antiproliferative activity against human MOLM-14 cells with CRBN-/- incubated for 72 hrs by CellTiter-Glo Luminescent Cell Viability Assay; assay type: functional, cell-based
# [4] = target: T1, Cereblon/Casein kinase I alpha; experiment: Molecular glue activity at CRBN/CK1-alpha in human MOLM-13 cells assessed as induction of CK1-alpha degradation at 1 uM incubated for 5 hrs by Western blot analysis; assay type: cell-based
# Target sequence in this assay (P48729 2-337 limits assumed): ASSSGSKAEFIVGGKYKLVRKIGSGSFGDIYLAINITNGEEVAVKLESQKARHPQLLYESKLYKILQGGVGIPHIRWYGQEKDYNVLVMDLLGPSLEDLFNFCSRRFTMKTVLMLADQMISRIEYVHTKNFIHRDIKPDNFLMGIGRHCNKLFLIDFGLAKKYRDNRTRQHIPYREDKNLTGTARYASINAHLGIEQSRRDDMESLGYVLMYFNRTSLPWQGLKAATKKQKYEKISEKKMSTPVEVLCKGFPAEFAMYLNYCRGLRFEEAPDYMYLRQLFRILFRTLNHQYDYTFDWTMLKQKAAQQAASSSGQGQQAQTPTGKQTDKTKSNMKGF
# Target sequence in this assay (Q96SW2 whole entry partner): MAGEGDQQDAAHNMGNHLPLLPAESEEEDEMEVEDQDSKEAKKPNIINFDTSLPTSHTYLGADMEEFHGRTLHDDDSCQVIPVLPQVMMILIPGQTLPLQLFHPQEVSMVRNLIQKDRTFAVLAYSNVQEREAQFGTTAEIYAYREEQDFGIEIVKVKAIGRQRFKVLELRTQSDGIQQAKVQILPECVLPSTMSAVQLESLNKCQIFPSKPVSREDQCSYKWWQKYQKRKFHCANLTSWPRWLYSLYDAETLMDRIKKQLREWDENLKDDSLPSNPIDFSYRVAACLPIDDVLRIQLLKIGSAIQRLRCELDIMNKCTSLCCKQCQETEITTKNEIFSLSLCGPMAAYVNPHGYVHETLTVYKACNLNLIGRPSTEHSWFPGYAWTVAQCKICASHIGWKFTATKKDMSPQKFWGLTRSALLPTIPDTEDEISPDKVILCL
# [5] = target: T1, Cereblon/Casein kinase I alpha; experiment: Molecular glue activity at CRBN/CK1-alpha in human MOLM-14 cells assessed as induction of CK1-alpha degradation at 1 uM incubated for 5 hrs by Western blot analysis; assay type: cell-based
# Target sequence in this assay (P48729 2-337 limits assumed): as the sequence (P48729 2-337 limits assumed) above
# Target sequence in this assay (Q96SW2 whole entry partner): as the sequence (Q96SW2 whole entry partner) above
# [6] = Metabolic stability in human liver microsomes assessed as half life; assay type: ADME, Microsome
# [7] = Metabolic stability in mouse liver microsomes assessed as half life; assay type: ADME, Microsome; conditions: for t1/2: microsomes
# [8] = Metabolic stability in human liver microsomes assessed as intrinsic clearance; assay type: ADME, Microsome
# [9] = Metabolic stability in mouse liver microsomes assessed as intrinsic clearance; assay type: ADME, Microsome
# MOLT-4 [10] = experiment: Induction of GSPT1 degradation in human MOLT-4 cells at 1 uM incubated for 5 hrs by quantitative mass spectrometry based proteomic analysis; assay type: cell-based
# MOLT-4 [11] = experiment: Induction of WEE1 degradation in human MOLT-4 cells at 1 uM incubated for 5 hrs by quantitative mass spectrometry based proteomic analysis; assay type: cell-based
# MOLT-4 [12] = experiment: Induction of IKZF1 degradation in human MOLT-4 cells at 1 uM incubated for 5 hrs by quantitative mass spectrometry based proteomic analysis; assay type: cell-based
# [13] = target: Zinc finger protein Aiolos (Homo sapiens) (UniProt Q9UKT9); experiment: Induction of IKZF3 degradation in human MOLT-4 cells at 1 uM incubated for 5 hrs by quantitative mass spectrometry based proteomic analysis; assay type: cell-based
# Chain of Zinc finger protein Aiolos (Homo sapiens) (Q9UKT9 whole entry): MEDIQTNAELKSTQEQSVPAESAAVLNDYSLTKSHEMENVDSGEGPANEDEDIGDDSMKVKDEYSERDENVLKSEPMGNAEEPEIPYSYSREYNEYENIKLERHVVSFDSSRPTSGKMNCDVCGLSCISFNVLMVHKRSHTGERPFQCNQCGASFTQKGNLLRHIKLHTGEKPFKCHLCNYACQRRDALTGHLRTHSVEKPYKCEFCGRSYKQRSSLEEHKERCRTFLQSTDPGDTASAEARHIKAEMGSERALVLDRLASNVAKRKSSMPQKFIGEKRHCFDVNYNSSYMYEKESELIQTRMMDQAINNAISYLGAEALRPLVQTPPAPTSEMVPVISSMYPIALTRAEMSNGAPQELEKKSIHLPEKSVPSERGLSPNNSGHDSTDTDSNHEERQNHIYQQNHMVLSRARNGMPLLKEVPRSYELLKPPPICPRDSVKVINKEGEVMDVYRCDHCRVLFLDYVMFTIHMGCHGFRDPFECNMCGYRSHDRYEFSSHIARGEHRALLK
# [14] = target: T1, Cereblon/Casein kinase I alpha; experiment: Molecular glue activity at CRBN/CK1-alpha in human MOLT-4 cells with CRBN-/- assessed as induction of CK1-alpha degradation at 1 uM incubated for 5 hrs by quantitative mass spectrometry based proteomic analysis; assay type: cell-based
# Target sequence in this assay (P48729 2-337 limits assumed): as the sequence (P48729 2-337 limits assumed) above
# Target sequence in this assay (Q96SW2 whole entry partner): as the sequence (Q96SW2 whole entry partner) above
# [15] = target: T1, Cereblon/Casein kinase I alpha; experiment: Molecular glue activity at CRBN/CK1-alpha in human MOLT-4 cells assessed as induction of CK1-alpha degradation at 1 uM incubated for <3 hrs by Western blot analysis; assay type: cell-based
# Target sequence in this assay (P48729 2-337 limits assumed): as the sequence (P48729 2-337 limits assumed) above
# Target sequence in this assay (Q96SW2 whole entry partner): as the sequence (Q96SW2 whole entry partner) above
# [16] = target: T1, Cereblon/Casein kinase I alpha; experiment: Molecular glue activity at CRBN/CK1-alpha in human MOLM-13 cells assessed as increase in p21 level at 0.1 to 1 uM incubated for 24 hrs by Western blot analysis; assay type: cell-based; conditions: dose 0.1-1 µM
# Target sequence in this assay (P48729 2-337 limits assumed): as the sequence (P48729 2-337 limits assumed) above
# Target sequence in this assay (Q96SW2 whole entry partner): as the sequence (Q96SW2 whole entry partner) above
# [17] = target: T1, Cereblon/Casein kinase I alpha; experiment: Molecular glue activity at CRBN/CK1-alpha in human MOLM-13 cells assessed as increase in p53 level at 0.1 to 1 uM incubated for 24 hrs by Western blot analysis; assay type: cell-based; conditions: dose 0.1-1 µM
# Target sequence in this assay (P48729 2-337 limits assumed): as the sequence (P48729 2-337 limits assumed) above
# Target sequence in this assay (Q96SW2 whole entry partner): as the sequence (Q96SW2 whole entry partner) above
# [18] = target: T1, Cereblon/Casein kinase I alpha; experiment: Molecular glue activity at CRBN/CK1-alpha in human MOLM-13 cells assessed as increase in MDM2 level at 0.1 to 1 uM incubated for 24 hrs by Western blot analysis; assay type: cell-based; conditions: dose 0.1-1 µM
# [19] = target: T1, Cereblon/Casein kinase I alpha; experiment: Molecular glue activity at CRBN/CK1-alpha in human MOLM-14 cells assessed as increase in p21 level at 0.1 to 1 uM incubated for 24 hrs by Western blot analysis; assay type: cell-based; conditions: dose 0.1-1 µM
# [20] = target: T1, Cereblon/Casein kinase I alpha; experiment: Molecular glue activity at CRBN/CK1-alpha in human MOLM-14 cells assessed as increase in p53 level at 0.1 to 1 uM incubated for 24 hrs by Western blot analysis; assay type: cell-based; conditions: dose 0.1-1 µM
# [21] = target: T1, Cereblon/Casein kinase I alpha; experiment: Molecular glue activity at CRBN/CK1-alpha in human MOLM-14 cells assessed as increase in MDM2 level at 0.1 to 1 uM incubated for 24 hrs by Western blot analysis; assay type: cell-based; conditions: dose 0.1-1 µM
# [22] = target: Zinc finger protein Helios (Homo sapiens) (UniProt Q9UKS7); experiment: Induction of IKZF2 degradation in human MOLT-4 cells at 1 uM incubated for 5 hrs by quantitative mass spectrometry based proteomic analysis; assay type: cell-based
# Chain of Zinc finger protein Helios (Homo sapiens) (Q9UKS7 whole entry): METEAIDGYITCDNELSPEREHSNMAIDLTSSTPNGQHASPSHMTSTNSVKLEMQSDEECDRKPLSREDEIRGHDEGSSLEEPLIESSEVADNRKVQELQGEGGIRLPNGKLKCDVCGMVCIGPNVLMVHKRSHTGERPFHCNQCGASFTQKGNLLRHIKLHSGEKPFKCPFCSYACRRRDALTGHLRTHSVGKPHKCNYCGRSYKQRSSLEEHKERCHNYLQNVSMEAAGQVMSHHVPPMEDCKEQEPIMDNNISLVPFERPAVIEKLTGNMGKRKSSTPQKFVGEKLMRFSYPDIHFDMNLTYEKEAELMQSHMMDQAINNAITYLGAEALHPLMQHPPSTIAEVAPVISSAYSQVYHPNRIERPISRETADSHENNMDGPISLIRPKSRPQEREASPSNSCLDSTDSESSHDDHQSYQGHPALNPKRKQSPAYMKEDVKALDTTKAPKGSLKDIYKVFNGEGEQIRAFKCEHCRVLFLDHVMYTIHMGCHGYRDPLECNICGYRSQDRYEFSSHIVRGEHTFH
# [23] = Induction of HiBiT-tagged WEE1 degradation in human Jurkat cells incubated for 5 hrs by Nano-Glo HiBiT assay; assay type: cell-based
# Jurkat = experiment: Induction of HiBiT-tagged WEE1 degradation in human Jurkat cells incubated for 5 hrs by Nano-Glo HiBiT assay relative to control; assay type: cell-based
# [24] = target: T1, Cereblon/Casein kinase I alpha; experiment: Molecular glue activity at CRBN/CK1-alpha in human MOLT-4 cells assessed as induction of CK1-alpha degradation at 100 uM incubated for 5 hrs by Western blot analysis; assay type: cell-based
smiles,measurement,setting,value
COc1ccc2nc(C(=O)Nc3ccc4c(c3)CN(C3CCC(=O)NC3=O)C4=O)cn2c1 (stereo unspecified),DC50,[1],1.1 nM
same,EC90,[1],16.2 nM
same,IC50,MOLM-13,23 nM
same,Activity,MOLM-14 [2],Active
same,Activity,MOLM-14 [3],inactive
same,Activity,[4],Active
same,Activity,[5],Active
same,t1/2,[6],0.553 h
same,t1/2,[7],> 2 h
same,CLH,[8],21 µL/min/mg
same,CLH,[9],< 6 µL/min/mg
O=C1CCC(N2C(=O)c3ccc(NC(=O)c4cnc5ccccc5c4)cc3C2=O)C(=O)N1 (stereo unspecified),DC50,[1],79 nM
O=C1CCC(N2Cc3cc(NC(=O)c4cn5cc(Cl)ccc5n4)ccc3C2=O)C(=O)N1 (stereo unspecified),DC50,[1],1.3 nM
same,EC90,[1],14.9 nM
O=C1CCC(N2Cc3cc(NC(=O)c4cc5ncccn5n4)ccc3C2=O)C(=O)N1 (stereo unspecified),DC50,[1],61 nM
COc1ccn2cc(C(=O)Nc3ccc4c(c3)CN(C3CCC(=O)NC3=O)C4=O)nc2c1 (stereo unspecified),DC50,[1],3.1 nM
same,EC90,[1],53 nM
O=C1CCC(N2C(=O)c3ccc(NC(=O)c4cn5ccccc5n4)cc3C2=O)C(=O)N1 (stereo unspecified),DC50,[1],88 nM
O=C1CCC(N2Cc3cc(NC(=O)c4nc5ccccn5n4)ccc3C2=O)C(=O)N1 (stereo unspecified),DC50,[1],61 nM
O=C1CCC(N2Cc3ccc(NC(=O)c4cn5ccccc5n4)cc3C2=O)C(=O)N1 (stereo unspecified),DC50,[1],> 10000 nM
O=C1CCC(N2Cc3cc(-c4cnc5ccccc5c4)ccc3C2=O)C(=O)N1 (stereo unspecified),Activity,MOLT-4 [10],inactive
same,Activity,MOLT-4 [11],inactive
same,DC50,[1],46.8 nM
same,Activity,MOLT-4 [12],inactive
same,Activity,[13],inactive
same,Activity,[14],Not active; Compound Induced Ck1-Alpha Degradation In A Crbn Dependent Manner
same,Activity,[15],Active
same,IC50,MOLM-13,2400 nM
same,Activity,MOLM-14 [2],Active
same,Activity,MOLM-14 [3],inactive
same,Activity,[4],Active
same,Activity,[5],Active
same,Activity,[16],Active
same,Activity,[17],Active
same,Activity,[18],Active
same,Activity,[19],Active
same,Activity,[20],Active
same,Activity,[21],Active
same,t1/2,[6],> 2 h
same,t1/2,[7],1.09 h
same,CLH,[8],< 6 µL/min/mg
same,CLH,[9],11 µL/min/mg
O=C1CCC(N2Cc3cc(NC(=O)c4cc5ccccc5cn4)ccc3C2=O)C(=O)N1 (stereo unspecified),Activity,MOLT-4 [10],inactive
same,Activity,MOLT-4 [11],inactive
same,DC50,[1],7.56 nM
same,Activity,MOLT-4 [12],inactive
same,Activity,[13],inactive
Cc1cccc2nc(C(=O)Nc3ccc4c(c3)CN(C3CCC(=O)NC3=O)C4=O)cn12 (stereo unspecified),DC50,[1],3.3 nM
same,EC90,[1],35.3 nM
O=C1CCC(N2Cc3cc(NC(=O)c4cn5cc(F)ccc5n4)ccc3C2=O)C(=O)N1 (stereo unspecified),DC50,[1],6.1 nM
same,EC90,[1],45.5 nM
O=C1CCC(N2Cc3c(CNC(=O)c4cnc5ccccc5c4)cccc3C2=O)C(=O)N1 (stereo unspecified),DC50,[1],138 nM
CN1C(=O)CCC(N2Cc3cc(NC(=O)c4cn5ccccc5n4)ccc3C2=O)C1=O (stereo unspecified),DC50,[1],> 10000 nM
same,Activity,[4],Active
same,Activity,[5],Active
O=C1CCC(N2Cc3c(NC(=O)c4cnc5ccccc5c4)cccc3C2=O)C(=O)N1 (stereo unspecified),DC50,[1],> 10000 nM
O=C1CCC(N2Cc3cc(-c4cc5ccccc5cn4)ccc3C2=O)C(=O)N1 (stereo unspecified),Activity,MOLT-4 [10],Active
same,Activity,MOLT-4 [11],Active
same,Activity,[22],Active
same,DC50,[1],10 nM
same,DC50,[23],43000 nM
same,Emax,Jurkat,80%
same,Activity,[14],Not active; Compound Induced Ck1-Alpha Degradation In A Crbn Dependent Manner
O=C1CCC(N2Cc3cc(NC(=O)c4cnc5ccccc5n4)ccc3C2=O)C(=O)N1 (stereo unspecified),DC50,[1],8.8 nM
Cc1c(C(=O)Nc2ccc3c(c2)CN(C2CCC(=O)NC2=O)C3=O)nc2ccccn12 (stereo unspecified),DC50,[1],8.4 nM
O=C1CCC(N2Cc3cc(NC(=O)c4nc5ccccc5[nH]4)ccc3C2=O)C(=O)N1 (stereo unspecified),DC50,[1],11.1 nM
COc1cccn2cc(C(=O)Nc3ccc4c(c3)CN(C3CCC(=O)NC3=O)C4=O)nc12 (stereo unspecified),DC50,[1],8.1 nM
same,EC90,[1],73.1 nM
O=C1CCC(N2Cc3cc(CNC(=O)c4cnc5ccccc5c4)ccc3C2=O)C(=O)N1 (stereo unspecified),DC50,[1],> 10000 nM
O=C1CCC(N2Cc3cc(NC(=O)c4cn5cccc(C(F)(F)F)c5n4)ccc3C2=O)C(=O)N1 (stereo unspecified),DC50,[1],1.6 nM
same,EC90,[1],25 nM
same,IC50,MOLM-13,29 nM
same,Activity,MOLM-14 [2],Active
same,Activity,MOLM-14 [3],inactive
same,Activity,[4],Active
same,Activity,[5],Active
O=C1CCC(N2Cc3cc(NC(=O)c4cn5ccc(F)cc5n4)ccc3C2=O)C(=O)N1 (stereo unspecified),DC50,[1],17.5 nM
same,EC90,[1],135 nM
O=C1CCC(N2Cc3cc(NC(=O)c4cnc5ccccc5c4)ccc3C2=O)C(=O)N1 (stereo unspecified),Activity,MOLT-4 [10],inactive
same,Activity,MOLT-4 [11],inactive
same,DC50,[1],79 nM
same,Activity,MOLT-4 [12],inactive
same,Activity,[13],inactive
same,t1/2,[6],0.39 h
same,t1/2,[7],> 2 h
same,CLH,[8],30 µL/min/mg
same,CLH,[9],< 6 µL/min/mg
O=C1CCC(N2Cc3cc(NC(=O)c4cnc5ccccn45)ccc3C2=O)C(=O)N1 (stereo unspecified),DC50,[1],82 nM
O=C1CCC(N2Cc3cc(NC(=O)c4cc5ccccn5c4)ccc3C2=O)C(=O)N1 (stereo unspecified),DC50,[1],87 nM
CCN(CC)CCNC(=O)c1c(C)[nH]c(/C=C2\C(=O)Nc3ccc(F)cc32)c1C [SUNITINIB],t1/2,[6],0.657 h
same,half-life,[7]; liver microsomes,0.348 h
same,CLH,[8],18 µL/min/mg
same,CLH,[9],33 µL/min/mg
O=C1CCC(N2Cc3cc(NC(=O)c4cn5ccccc5n4)ccc3C2=O)C(=O)N1 (stereo unspecified),DC50,[1],5.7 nM
same,Activity,[24],Active; Induces Maximum Degradation
same,Activity,[15],Active
same,IC50,MOLM-13,41 nM
same,Activity,MOLM-14 [2],Active
same,Activity,MOLM-14 [3],inactive
same,Activity,[4],Active
same,Activity,[5],Active
same,Activity,[16],Active
same,Activity,[17],Active
same,Activity,[18],Active
same,Activity,[19],Active
same,Activity,[20],Active
same,Activity,[21],Active
same,t1/2,[6],> 2 h
same,t1/2,[7],1.26 h
same,CLH,[8],< 6 µL/min/mg
same,CLH,[9],9 µL/min/mg
COc1ccc2cc(C(=O)Nc3ccc4c(c3)CN(C3CCC(=O)NC3=O)C4=O)ccc2c1 (stereo unspecified),Activity,[14],Not active; Compound Induced Ck1-Alpha Degradation In A Crbn Dependent Manner
same,Activity,[16],Active
same,Activity,[17],Active
same,Activity,[18],Active
same,Activity,[19],Active
same,Activity,[20],Active
same,Activity,[21],Active
O=C1CCC(N2Cc3cc(CNC(=O)c4cn5ccccc5n4)ccc3C2=O)C(=O)N1 (stereo unspecified),DC50,[1],> 10000 nM
O=C1CCC(N2Cc3cc(Nc4noc5ccccc45)ccc3C2=O)C(=O)N1 (stereo unspecified),Activity,[14],Not active; Compound Induced Ck1-Alpha Degradation In A Crbn Dependent Manner
same,Activity,[16],Active
same,Activity,[17],Active
same,Activity,[18],Active
same,Activity,[19],Active
same,Activity,[20],Active
same,Activity,[21],Active
O=C1CCC(N2Cc3cc(NC(=O)c4cc5ccccn5n4)ccc3C2=O)C(=O)N1 (stereo unspecified),DC50,[1],4.7 nM
same,IC50,MOLM-13,14 nM
same,Activity,MOLM-14 [2],Active
same,Activity,MOLM-14 [3],inactive
same,Activity,[4],Active
same,Activity,[5],Active
same,t1/2,[6],1.09 h
same,t1/2,[7],0.105 h
same,CLH,[8],11 µL/min/mg
same,CLH,[9],111 µL/min/mg
